Experimental data from PMC5108082, “Pharmacokinetics, toxicity, and cytochrome P450 modulatory activity of plumbagin” (BMC Pharmacology & Toxicology, 2016).
“Also recorded” adds a separate entry of the source.

Columns and labels:
[1] = acute toxicity test, single oral dose; assay type: in vivo, rat; conditions: both sexes, Wistar, rat, in vivo, rats, single oral dose
Protocol: (§1) Plumbagin was dissolved with 20 % Tween-80 to obtain the desired concentrations. Wistar rats were fasting 2 h before administration of a single oral dose of the plumbagin. Animals were divided into eight groups of six (3 males and 3 females for each group). For the acute toxicity test, rats in each group were fed with plumbagin at a single oral dose of 500, 250, or 150 mg/kg body weight (1 mL); control group received a single oral dose of 20 % Tween-80 (1 mL). For the subacute toxicity test, rats in each group were fed with plumbagin at a daily dose of 100, 50, or 25 mg/kg body weight (1 mL) for 28 days; control group received a daily oral dose of 20 % Tween-80 for 28 days (1 mL).
(§2) General behavioral changes of each rat was observed continuously for 1 h after each dose, intermittently every 4 h, and thereafter over a period of 24 h. […] At the end of the observation period, all animals were sacrificed under ether anesthesia (isoflurane) and vital organs (liver, lung, kidney, heart, and spleen) were removed from all animals for gross and histopathological examination. Blood sample was collected from each rat through cardiac puncture for analysis of plasma chemistry (heparin as an anticoagulant) and blood hematology (EDTA as an anticoagulant).

Wistar rats = assay: subacute toxicity test, daily oral dose for 28 days; assay type: in vivo, rat
Protocol: as §1, §2

[2] = as above; assay type: in vivo, rat; conditions: both sexes, Wistar, rat, in vivo, rats, daily oral doses for 28 days
Protocol: as §1, §2

CYP1A2 mRNA = CYP1A2 mRNA expression in livers of treated mice (RT-PCR); assay type: in vivo, mouse; conditions: mice, 25, 12.5, 6.25 mg/kg daily oral for 28 days vs control
Protocol: Mice were divided into four groups (3 male mice each). Mice in the treated groups were fed with plumbagin at a daily oral dose of 25, 12.5, or 6.25 mg/kg body weight (1 mL) for 28 days. The control group received a daily oral dose (1 mL) of 20 % Tween-80 for 28 days. At the end of the experiment period, all animals were sacrificed under ether anesthesia and livers were removed for investigation of the modulatory effect of plumbagin on hepatic CYP1A2 and CYP3A11.
The liver sample isolated from each mouse was rinsed with ice-cold, 0.9 % NaCl and total RNA was prepared using Trizol^TM reagent according to the manufacturer’s protocol (Invitrogen, Karlsruhe, Germany). Briefly, the sample was homogenized in TRIZOL reagent (1 mL) per 50–100 mg of tissue. The homogenized sample was incubated at 25 °C for 5 min and chloroform (0.2 mL/1 mL of TRIZOL reagent) was added. The sample was thoroughly mixed and incubated at 25 °C for 3 min. Following centrifugation (12,000 × g for 15 min, 2–8 °C), the sample was separated into a lower red phenol-chloroform phase, an interphase, and a colorless upper aqueous phase. […] The RNA pellets were dried and dissolved in 20 μL DEPC-treated water and the concentrations were determined using NanoDrop Spectrophotometry (NanoDrop Technologies, Wilmington, DE, USA). […]

[3] = 25 mg/kg body weight daily for 28 days
[4] = 25 mg/kg daily oral for 28 days, median (interquartile range)

SMILES: CC1=CC(=O)c2c(O)cccc2C1=O [plumbagin, 5-hydroxy-2-methyl-1,4-naphthoquinone]
- LD50 at 14 days ([1]; read-out: 50 % lethal dose (LD50), acute toxicity): 250 mg/kg
- MTD at 14 days ([1]; read-out: maximum tolerated dose, acute toxicity): 150 mg/kg
- behavior, signs of toxicity, water and food consumption, body weight (Wistar rats; [3]): no abnormality in behavior, sign of toxicity, nor changes in water and food consumption, as well as body weights
- histopathological examination (liver, kidney, heart, spleen, lung) (Wistar rats; [3]): no significant change in size and morphology
- survival (Wistar rats; [3]): all rats survived
- changes in blood chemistry and hematology (Wistar rats; 25 mg/kg body weight daily for 28 days vs control): no significant changes in blood chemistry and hematology; also recorded: no significant change in hematological and blood biochemistry profiles
- Blood morphology (Wistar rats; 25 mg/kg daily oral for 28 days): Normal
- ALT (Wistar rats; [4]): 30 (11) U/L
- AST (Wistar rats; [4]): 101 (15) U/L
- BUN (Wistar rats; [4]): 22.0 (7.5) mg/dL
- Cholesterol (Wistar rats; [4]): 73 (6) mg/dL
- Creatinine (Wistar rats; [4]): 0.50 (0.00) mg/dL
- Eosinophils (Wistar rats; [4]): 0.00 (1.00) ×10^3/μL
- Glucose (Wistar rats; [4]): 230 mg/dL
- Hematocrit (Wistar rats; [4]): 47.8 (2.6) %
- Hemoglobin (Wistar rats; [4]): 14.4 (1.2) g/dL
- Lymphocytes (Wistar rats; [4]): 7.59 (0.31) ×10^3/μL
- Monocytes (Wistar rats; [4]): 0.00 (1.00) ×10^3/μL
- Neutrophils (Wistar rats; [4]): 2.20 (0.63) ×10^3/μL
- Platelets count (Wistar rats; [4]): 885.50 (73.75) ×10^3/μL
- RBC (Wistar rats; [4]): 8.16 (0.72) ×10^6/μL
- Triglyceride (Wistar rats; [4]): 110 (9) mg/dL
- WBC (Wistar rats; [4]): 9.40 (0.65) ×10^3/μL
- Glucose (Wistar rats; 25 mg/kg daily oral for 28 days, median (interquartile range), listed as Plumbagin): 230 (59) mg/dL
- rats died (Wistar rats; 50 mg/kg body weight daily): two rats
- rats with toxic signs and symptoms (Wistar rats; 50 mg/kg body weight daily): 2/6
- time to death (Wistar rats; 50 mg/kg body weight daily): 12 to 16 days
- rats died (Wistar rats; 100 mg/kg body weight daily): All rats
- rats with toxic signs and symptoms (Wistar rats; 100 mg/kg body weight daily): 6/6
- time to death (Wistar rats; 100 mg/kg body weight daily): 6 to 10 days
- gender-specific toxicity (Wistar rats; all dose levels): No gender-specific toxicity was observed
- LD50 at 28 days ([2]; read-out: 50 % lethal dose (LD50), subacute toxicity): 50 to 100 mg/kg
- MTD at 28 days ([2]; read-out: maximum tolerated dose, subacute toxicity): 25 mg/kg
- modulation of CYP1A2 mRNA expression (CYP1A2 mRNA): not found to induce or inhibit
- modulation of CYP1A2 mRNA expression (CYP1A2 mRNA; listed as Plumbagin): did not significantly modulate
